From US20090186100A1, “MEDICAMENT FOR ANTI-AGING SKIN CARE AND WOUND HEALING AND USE THEREOF” (SAGITTARIUS LIFE SCIENCE CORP., priority 2008, published 2009) come the findings set out here.

In assay [1] the test system is Human dermal fibroblasts (HFB). The experiment in a line: HFB proliferation (MTT). Type of assay: cell-based. The settings on record: 72 hours; for Mean OD: MTT A570.
Method: Human dermal fibroblasts (HFB) were cultured from foreskin with consent by cell emigration from ˜1 mm^3 skin pieces in DMEM+1 mM sodium pyruvate+2 mM glutamine+100 U/ml penicillin+100 ug/ml streptomycin+10% fetal calf serum (FCS) (C-DMEM) under humidified atmosphere containing 5% CO2 at 37° C.
1×10^4 HFB were seeded in a 96 multi-well culture dish. 48 hours later, the cells were treated with various concentrations of SS304L in C-DMEM under humidified atmosphere containing 5% CO2 at 37° C. The cells were exposed to drugs for 72 hours, and then treated with 0.5 mg/ml MTT for 4 hours at 37° C. The reduced formazan was dissolved in isopropanol containing 0.04 N HCl, and measured at A570 nm by an ELISA reader (Molecular Device).
Assay [2] is described as follows: Free radical scavenger, SOD mimetic activity (xanthine/xanthine oxidase/NBT). Type of assay: biochemical. Conditions: 6.1 μM. How it is done:
SS304L or vehicle was incubated with 0.12 mM xanthine, 6 mU xanthine oxidase, 27 μM nitroblue tetrazolium (NBT), 0.11 mM EDTA, 0.005% bovine serum albumin and Na2CO3 at pH 10.5 at 25° C. for 20 minutes. Conversion of xanthine to uric acid +O^−+NBT to formazan was then determined by measurement of absorbance at 595 nm and percent inhibition by superoxide dismutase or SS304L was calculated.

The next assay has as its target T1, Human recombinant COX II (Homo sapiens, UniProt P35354).
T1 construct: purchased Sigma C-0858; host or cells: Sf21 insect cells
T1 sequence (P35354 18-604): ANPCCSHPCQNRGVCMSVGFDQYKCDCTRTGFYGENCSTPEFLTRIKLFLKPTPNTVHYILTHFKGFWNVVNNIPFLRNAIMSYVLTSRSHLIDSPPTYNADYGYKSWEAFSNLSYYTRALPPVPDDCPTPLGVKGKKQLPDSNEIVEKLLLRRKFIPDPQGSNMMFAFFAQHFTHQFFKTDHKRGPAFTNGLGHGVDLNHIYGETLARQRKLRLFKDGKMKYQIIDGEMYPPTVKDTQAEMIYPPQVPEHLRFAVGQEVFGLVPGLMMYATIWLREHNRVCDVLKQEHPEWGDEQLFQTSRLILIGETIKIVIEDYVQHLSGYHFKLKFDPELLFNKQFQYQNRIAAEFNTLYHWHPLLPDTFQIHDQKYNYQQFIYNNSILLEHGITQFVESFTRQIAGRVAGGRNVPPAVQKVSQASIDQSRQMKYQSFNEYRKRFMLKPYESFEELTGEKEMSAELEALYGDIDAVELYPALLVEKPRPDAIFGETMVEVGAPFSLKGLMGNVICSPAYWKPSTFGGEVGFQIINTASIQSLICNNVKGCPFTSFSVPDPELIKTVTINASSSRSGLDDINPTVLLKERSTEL
The experiment in a line: Inhibition of cyclooxygenase II. It counts as biochemical. How it is done: SS304L or vehicle was […] with 0.11 U enzyme, 1 mM reduced glutathione, 500 μM phenol and 1 μM hematin in Tris-HCl, pH 7.7 at 37° C. for 15 minutes. 0.3 μM arachidonic acid as substrate was added and the reaction was terminated by addition of 1 N HCl after 5 minutes. The converted PGE2 was measured by an Amersham EIA kit following centrifugation. SS304L was assayed at 10 and 100 μg/ml.

The subject of assay [3] is full thickness excision wounds. The experiment in a line: Full thickness excision wound healing in mice. Type of assay: in vivo, Aging male ICR mice. How it is done: Aging male ICR mice at body weights of 40 to 50 grams (Age: 14 to 16 weeks) were lightly anesthetized with ether. 0.7 mm in diameter full thickness excisions were conducted at the dorsal back skin after shaving and 70% ethanol sterilization. Immediately after excision, the wounds were covered with either vehicle (sterile 1% carboxymethyl cellulose, 25 μl) at first wound site of all mice, and with 1% arginine, 0.1% S[…], or 1% S[…] at the second wound site. Each group contained 4 to 6 mice. The drugs were applied on the day of photography (Day 0, 1, 2, 3, 4, 7, 10, 14, 18). The areas of the wounds and the rates and qualities of healing were compared at each time point. Arginine was used as comparison due to the similarity of part of its action mechanisms to S[…].

As for Vitamin E, the “Inc. (%.)” value in assay [1] (Vitamin E 3 uM) is on record as 0%; in assay [1] (Vitamin E 10 uM), 9%; in assay [1] (Vitamin E 30 uM) it was −4%; in assay [1] (Vitamin E 100 uM) it was −9%; in assay [1] (Vitamin E 300 uM), −16%. Moreover, the “Mean OD” value came out at 0.135 in assay [1] (Vitamin E 3 uM); 0.144 in assay [1] (Vitamin E 10 uM); 0.131 in assay [1] (Vitamin E 30 uM); 0.126 in assay [1] (Vitamin E 100 uM); 0.120 in assay [1] (Vitamin E 300 uM).

With `O=C(O[C@@H]1Cc2c(O)cc(O)cc2O[C@@H]1c1ccc(O)c(O)c1)c1cc(O)c(O)c(O)c1` [(−)-Epicatechin gallate], the “Inhibition (%)” value in assay [2] is given as 50%.

Regarding Vitamin A, the “Inc. (%)” value in assay [1] (Vitamin A 0.1 uM) is −7%; in assay [1] (Vitamin A 0.3 uM), −4%; in assay [1] (Vitamin A 1 uM), −4%; in assay [1] (Vitamin A 3 uM) it was −12%; in assay [1] (Vitamin A 10 uM) it was −6%. The “Mean OD” value in assay [1] (Vitamin A 0.1 uM) worked out at 0.128; in assay [1] (Vitamin A 0.3 uM), 0.131; in assay [1] (Vitamin A 1 uM), 0.131; in assay [1] (Vitamin A 3 uM), 0.124; in assay [1] (Vitamin A 10 uM), 0.129.

In general, inhibition refers to the share of the control response that was lost under treatment. In the case of `CS(=O)(=O)Nc1ccc([N+](=O)[O-])cc1Oc1ccccc1` [Nimesulide], at Human recombinant COX II, the inhibition at 1 µM is 50%.

With `C[C@]12CC[C@@H]3c4ccc(O)cc4CC[C@H]3[C@@H]1CC[C@@H]2O` [Estradiol], the “Inc. (%.)” value in assay [1] (Estradiol 1 nM) is recorded as −4%; in assay [1] (Estradiol 3 nM), 4%; in assay [1] (Estradiol 10 nM), 2%; in assay [1] (Estradiol 30 nM), −3%; in assay [1] (Estradiol 100 nM), −4%. In addition, the “Mean OD” value was determined as 0.131 in assay [1] (Estradiol 1 nM); 0.139 in assay [1] (Estradiol 3 nM); 0.137 in assay [1] (Estradiol 10 nM); 0.132 in assay [1] (Estradiol 30 nM); 0.131 in assay [1] (Estradiol 100 nM).

For the compound `N=C(N)NCCC[C@H](N)C(=O)O` [arginine], the Inflammation of wounds result in assay [3] (day 3 post wounding, topical) is recorded as “no apparent sign of inflammation”. Besides, the Re-epithelization/granulation process result in assay [3] (day 7, topical) was “significantly facilitated”. Besides, in assay [3] (day 10, applied at 1%), the “Unhealed wound areas compared to the areas of the vehicle treated wounds (fraction)” value is given as “⅓ to ½”. Further, the Healing of wounds entry in assay [3] (day 14, topical) is “completely healed”.
